Where “and” joins values, the source holds several entries; their conditions need not be identical. Equal entries are not always repeated. Toxic doses and inconclusive results are not listed.
System: P388 leukemia ip, CD2F1 mice, survival T/C
Test: NCI In Vivo Anticancer Drug Screen. Data for tumor model P388 Leukemia (intraperitoneal) in CD2F1 (CDF1) mice
Conditions: endpoint: median survival time, higher = longer survival
Outline: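 Mice carrying the transplanted tumor received test compound or vehicle. Survival was recorded in each group, and the value is the treated-group measurement divided by that of the vehicle-treated control group.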

[1] = dose: 50.0 mg/kg/injection, schedule: Q01DX009 (ip), vehicle: saline with Tween-80
[2] = dose: 100.0 mg/kg/injection, schedule: Q01DX009 (ip), vehicle: saline with Tween-80
[3] = dose: 100.0 mg/kg/injection, schedule: Q04DX003 (ip), vehicle: saline with Tween-80
[4] = dose: 200.0 mg/kg/injection, schedule: Q01DX009 (ip), vehicle: saline with Tween-80
[5] = dose: 200.0 mg/kg/injection, schedule: Q04DX003 (ip), vehicle: saline with Tween-80
[6] = dose: 400.0 mg/kg/injection, schedule: Q04DX003 (ip), vehicle: saline with Tween-80
[7] = dose: 50.0 mg/kg/injection, schedule: Q01DX001 (ip), vehicle: Klucel (hydroxypropylcellulose) (HPC)
[8] = dose: 100.0 mg/kg/injection, schedule: Q01DX001 (ip), vehicle: Klucel (hydroxypropylcellulose) (HPC)
[9] = dose: 60.0 mg/kg/injection, schedule: Q01DX005 (ip), vehicle: saline with Tween-80
[10] = dose: 120.0 mg/kg/injection, schedule: Q01DX005 (ip), vehicle: saline with Tween-80
[11] = dose: 240.0 mg/kg/injection, schedule: Q01DX005 (ip), vehicle: saline with Tween-80
[12] = dose: 50.0 mg/kg/injection, schedule: Q01DX005 (ip), vehicle: Klucel (hydroxypropylcellulose) (HPC)
[13] = dose: 100.0 mg/kg/injection, schedule: Q01DX005 (ip), vehicle: Klucel (hydroxypropylcellulose) (HPC)
[14] = dose: 200.0 mg/kg/injection, schedule: Q01DX005 (ip), vehicle: Klucel (hydroxypropylcellulose) (HPC)
[15] = dose: 50.0 mg/kg/injection, schedule: Q01DX005 (ip), vehicle: saline with Tween-80
[16] = dose: 100.0 mg/kg/injection, schedule: Q01DX005 (ip), vehicle: saline with Tween-80

Structure (SMILES): NC(C(=O)O)C(CC(=O)O)c1ccccc1 (configuration not stated)
- T/C [1]: 88 % of control
- T/C (dose: 50.0 mg/kg/injection, schedule: Q01DX009 (ip), vehicle: suspension in saline): 96 % of control
- T/C [2]: 94 % of control
- T/C (dose: 100.0 mg/kg/injection, schedule: Q01DX009 (ip), vehicle: suspension in saline): 89 % of control
- T/C [3]: 100 % of control
- T/C [4]: 95 % of control
- T/C (dose: 200.0 mg/kg/injection, schedule: Q01DX009 (ip), vehicle: suspension in saline): 88 % of control
- T/C [5]: 108 % of control
- T/C [6]: 97 % of control

Structure (SMILES): O=c1[nH]cc(CS)c(=O)[nH]1
- T/C (dose: 12.5 mg/kg/injection, schedule: Q01DX009 (ip), vehicle: saline): 102 % of control
- T/C (dose: 25.0 mg/kg/injection, schedule: Q01DX009 (ip), vehicle: saline): 108 % of control
- T/C (dose: 50.0 mg/kg/injection, schedule: Q01DX009 (ip), vehicle: saline): 100 % of control and 102 % of control
- T/C (dose: 100.0 mg/kg/injection, schedule: Q01DX009 (ip), vehicle: saline): 103 % of control

Structure (SMILES): COc1ccc(CNCCNCc2ccc(OC)cc2)cc1
- T/C [7]: 93 % of control
- T/C [8]: 93 % of control
- T/C (dose: 200.0 mg/kg/injection, schedule: Q01DX001 (ip), vehicle: Klucel (hydroxypropylcellulose) (HPC)): 90 % of control

Structure (SMILES): FC(F)(F)c1ccc2c(c1)N(CCCN1CCN(CCCl)CC1)c1ccccc1S2
- T/C (dose: 6.25 mg/kg/injection, schedule: Q04DX003 (ip), vehicle: saline): 96 % of control
- T/C (dose: 12.5 mg/kg/injection, schedule: Q04DX003 (ip), vehicle: saline): 101 % of control
- T/C (dose: 25.0 mg/kg/injection, schedule: Q04DX003 (ip), vehicle: saline): 115 % of control

Structure (SMILES): Cc1ccc(S(=O)(=O)N2C(=N)C(=S)N(C)C2=O)cc1
- T/C (dose: 60.0 mg/kg/injection, schedule: Q01DX005 (ip), vehicle: Klucel + Tween-80): 101 % of control
- T/C (dose: 120.0 mg/kg/injection, schedule: Q01DX005 (ip), vehicle: Klucel + Tween-80): 111 % of control
- T/C (dose: 240.0 mg/kg/injection, schedule: Q01DX005 (ip), vehicle: Klucel + Tween-80): 114 % of control

Structure (SMILES): NC(=O)c1ccc(=S)[nH]c1
- T/C (dose: 12.5 mg/kg/injection, schedule: Q01DX009 (ip), vehicle: Klucel (hydroxypropylcellulose) (HPC)): 106 % of control
- T/C (dose: 25.0 mg/kg/injection, schedule: Q01DX009 (ip), vehicle: Klucel (hydroxypropylcellulose) (HPC)): 103 % of control
- T/C (dose: 50.0 mg/kg/injection, schedule: Q01DX009 (ip), vehicle: Klucel (hydroxypropylcellulose) (HPC)): 97 % of control
- T/C (dose: 100.0 mg/kg/injection, schedule: Q01DX009 (ip), vehicle: Klucel (hydroxypropylcellulose) (HPC)): 103 % of control

Structure (SMILES): O=[N+]([O-])CC(OCCCCCO)C(Cl)(Cl)Cl (configuration not stated)
- T/C [1]: 95 % of control
- T/C [2]: 100 % of control
- T/C [4]: 86 % of control

Structure (SMILES): O=C(O)c1ccc(N=Nc2ccc(N(CCCl)CCCl)cc2C(=O)O)cc1
- T/C [7]: 100 % of control
- T/C [8]: 107 % of control

Structure (SMILES): CC(C)(C)c1cc(-n2nc3ccccc3[n+]2[O-])c(O)c(C(C)(C)C)c1
- T/C [9]: 100 % of control
- T/C [10]: 94 % of control
- T/C [11]: 91 % of control

Structure (SMILES): NC(=O)N=C(N)N
- T/C [12]: 106 % of control
- T/C [13]: 98 % of control
- T/C [14]: 101 % of control and 106 % of control

Structure (SMILES): CC(=O)N1N=C(c2ccc(OCC(O)CN3CCN(CC(O)COc4ccc(C5=NN(C(C)=O)C(c6ccccc6)C5)cc4)CC3)cc2)CC1c1ccccc1 (configuration not stated)
- T/C [15]: 100 % of control
- T/C [16]: 86 % of control

Structure (SMILES): Cc1nc2ccccc2c(=O)n1-c1nc2ccccc2s1
- T/C [9]: 92 % of control
- T/C [10]: 89 % of control and 90 % of control
- T/C [11]: 103 % of control

Structure (SMILES): NC(=O)C1C2C=CC(O2)C1C(=O)O (configuration not stated)
- T/C (dose: 7.5 mg/kg/injection, schedule: Q01DX005 (ip), vehicle: saline): 100 % of control
- T/C (dose: 15.0 mg/kg/injection, schedule: Q01DX005 (ip), vehicle: saline): 104 % of control
- T/C (dose: 30.0 mg/kg/injection, schedule: Q01DX005 (ip), vehicle: saline): 104 % of control

Structure (SMILES): OC(c1ccco1)c1nc2ccccc2s1 (configuration not stated)
- T/C (dose: 15.0 mg/kg/injection, schedule: Q01DX005 (ip), vehicle: Klucel (hydroxypropylcellulose) (HPC)): 106 % of control
- T/C (dose: 30.0 mg/kg/injection, schedule: Q01DX005 (ip), vehicle: Klucel (hydroxypropylcellulose) (HPC)): 100 % of control
- T/C (dose: 60.0 mg/kg/injection, schedule: Q01DX005 (ip), vehicle: Klucel (hydroxypropylcellulose) (HPC)): 105 % of control and 92 % of control

Structure (SMILES): C=C(CN(C)C)C(=O)c1ccccc1C
- T/C (dose: 0.78 mg/kg/injection, schedule: Q01DX005 (ip), vehicle: saline): 102 % of control
- T/C (dose: 1.56 mg/kg/injection, schedule: Q01DX005 (ip), vehicle: saline): 98 % of control
- T/C (dose: 3.12 mg/kg/injection, schedule: Q01DX005 (ip), vehicle: saline): 94 % of control
- T/C (dose: 6.25 mg/kg/injection, schedule: Q01DX005 (ip), vehicle: suspension in saline): 108 % of control

Structure (SMILES): CCN(CC)P(=O)(N1CC1C)N1CC1C (configuration not stated)
- T/C (dose: 33.0 mg/kg/injection, schedule: Q04DX003 (ip), vehicle: saline): 109 % of control
- T/C (dose: 75.0 mg/kg/injection, schedule: Q04DX003 (ip), vehicle: saline): 150 % of control

Structure (SMILES): O=CN(c1ccccc1)c1ccccc1
- T/C (dose: 50.0 mg/kg/injection, schedule: Q01DX009 (ip), vehicle: other): 95 % of control
- T/C (dose: 50.0 mg/kg/injection, schedule: Q04DX003 (ip), vehicle: saline with Tween-80): 107 % of control
- T/C (dose: 100.0 mg/kg/injection, schedule: Q01DX009 (ip), vehicle: other): 90 % of control
- T/C (dose: 100.0 mg/kg/injection, schedule: Q04DX003 (ip), vehicle: other): 91 % of control
- T/C [3]: 109 % of control
- T/C (dose: 200.0 mg/kg/injection, schedule: Q01DX009 (ip), vehicle: other): 90 % of control
- T/C (dose: 200.0 mg/kg/injection, schedule: Q04DX003 (ip), vehicle: other): 87 % of control
- T/C [5]: 110 % of control
- T/C (dose: 400.0 mg/kg/injection, schedule: Q01DX009 (ip), vehicle: other): 100 % of control
- T/C (dose: 400.0 mg/kg/injection, schedule: Q04DX003 (ip), vehicle: other): 87 % of control
- T/C [6]: 110 % of control
- T/C (dose: 800.0 mg/kg/injection, schedule: Q04DX003 (ip), vehicle: saline with Tween-80): 97 % of control

Structure (SMILES): CC(Cl)S(N)(=O)=O (configuration not stated)
- T/C (dose: 50.0 mg/kg/injection, schedule: Q01DX005 (ip), vehicle: saline): 105 % of control
- T/C (dose: 100.0 mg/kg/injection, schedule: Q01DX005 (ip), vehicle: saline): 98 % of control
- T/C (dose: 200.0 mg/kg/injection, schedule: Q01DX005 (ip), vehicle: saline): 105 % of control

Structure (SMILES): CC(C)(C)OC(=O)c1cccc(Br)c1
- T/C [15]: 101 % of control
- T/C [16]: 104 % of control
- T/C (dose: 200.0 mg/kg/injection, schedule: Q01DX005 (ip), vehicle: saline with Tween-80): 105 % of control

Structure (SMILES): O=C(NCC1CC1)c1ccccc1NC(=O)c1cc2ccccc2oc1=O
- T/C [9]: 100 % of control
- T/C [10]: 100 % of control
- T/C [11]: 108 % of control

Structure (SMILES): N#C/C(=C\c1ccccc1)CN1CCCCC1
- T/C (dose: 100.0 mg/kg/injection, schedule: Q01DX001 (ip), vehicle: saline with Tween-80): 110 % of control
- T/C (dose: 200.0 mg/kg/injection, schedule: Q01DX001 (ip), vehicle: saline with Tween-80): 122 % of control

Structure (SMILES): O=C(O)COc1ccc(I)cc1I
- T/C (dose: 100.0 mg/kg/injection, schedule: Q04DX003 (ip), vehicle: Klucel (hydroxypropylcellulose) (HPC)): 110 % of control
- T/C (dose: 200.0 mg/kg/injection, schedule: Q04DX003 (ip), vehicle: Klucel (hydroxypropylcellulose) (HPC)): 91 % of control

Structure (SMILES): O=[N+]([O-])c1ccc(-c2nnn(CCCN3CCOCC3)c2N2CCCCC2)cc1
- T/C [12]: 107 % of control
- T/C [13]: 107 % of control
- T/C [14]: 107 % of control

— PubChem BioAssay AID330 (DTP/NCI, 2004)
